Measurements taken from publication PMC12274840 (The Journal of Biological Chemistry, 2025).
In brackets after ≈: the same amount, converted by molar mass. Like-named read-outs stand apart in the source and are kept apart here.

Assays:
[1] = system: E. coli KA797 cells carrying pUK21 with CTX-M-14 WT (Tat); experiment: microbe, parasite or virus in culture; format: cell-based; details: Escherichia coli, antibiotic alone
[2] = system: E. coli KA797 cells carrying pUK21 with TEM-1 WT (Sec); experiment: microbe, parasite or virus in culture; format: cell-based; details: Escherichia coli, antibiotic alone
[3] = system: E. coli KA797 cells carrying pUK21 with TEM-1 Y105R; format: cell-based, Escherichia coli; details: antibiotic alone
[4] = system: E. coli KA797 cells carrying pUK21 with TEM-1 Y105G; format: cell-based, Escherichia coli; details: antibiotic alone
BlaC WT = molecular target: T1, BlaC WT (Mycobacterium tuberculosis, UniProt P9WKD3); format: biochemical; details: pH 6.4
T1 construct: correspond to residue numbers 41-307 of BlaC (Uniprot entry P9WKD3-1); His tag with TEV cleavage site (N); made in house; host or cells: E. coli BL21 (DE3) pLysS

CTX-M-14 Y105G = molecular target: T2, CTX-M-14 Y105G (Escherichia coli, UniProt Q9L5C7, Y108G); format: biochemical
T2 construct: 29 to 291 of CTX-M-14 (Q9L5C7); His tag with TEV cleavage site (N); made in house; host or cells: E. coli BL21 (DE3) pLysS

TEM-1 Y105G = TEM-1 Y105G (Escherichia coli, UniProt P62593, Y103G); experiment: Steady-state kinetics of substrate hydrolysis, TEM-1 Y105G; format: biochemical; details: phosphate buffer pH 6.4, 25 °C
[5] = system: E. coli KA797 cells carrying BlaC position 105 library; format: cell-based, Escherichia coli; details: carbenicillin; for Fi CAR AVG: average of replicates
[6] = system: E. coli KA797 cells carrying KPC-2 position 105 library; format: cell-based; details: selection with labelled antibiotic

CC1(C)S[C@@H]2[C@H](NC(=O)C(C(=O)O)c3ccccc3)C(=O)N2[C@H]1C(=O)O (some centres unmarked) [carbenicillin]
MIC [1]: 16 mg/mL (≈ 42.3 mM)
MIC [2]: 32 mg/mL (≈ 84.6 mM)
MIC [3]: 4 mg/mL (≈ 10.6 mM)
MIC [4]: 16,000 μg/ml
kcat (BlaC WT): 0.51 ± 00.2 s⁻¹
Km (BlaC WT; read-out: KM^app): 5.5 ± 0.7 µM
kcat (CTX-M-14 Y105G; phosphate buffer pH 6.4, 25 °C): 11 ± 2 s⁻¹
Km (CTX-M-14 Y105G; read-out: KM^app, phosphate buffer pH 6.4, 25 °C): 228 ± 61 µM
kcat (TEM-1 Y105G): 59.0 ± 0.3 s⁻¹
Fi CAR AVG ([5]; AA 105 Ala): -0.273
Fi CAR 1 ([5]; AA 105 Ala, replicate 1): -0.487
Fi CAR 3 ([5]; AA 105 Ala, replicate 3): -0.060
Fi CAR AVG ([5]; AA 105 Arg): 0.354
Fi CAR 1 ([5]; AA 105 Arg, replicate 1): -0.038
Fi CAR 2 ([5]; AA 105 Arg, replicate 2): 0.623
Fi CAR 3 ([5]; AA 105 Arg, replicate 3): 0.477
Fi CAR AVG ([5]; AA 105 Asn): 0.070
Fi CAR 1 ([5]; AA 105 Asn, replicate 1): 0.359
Fi CAR 2 ([5]; AA 105 Asn, replicate 2): -0.104
Fi CAR 3 ([5]; AA 105 Asn, replicate 3): -0.045
Fi CAR AVG ([5]; AA 105 Asp): 0.382
Fi CAR 1 ([5]; AA 105 Asp, replicate 1): 0.054
Fi CAR 2 ([5]; AA 105 Asp, replicate 2): 0.201
Fi CAR 3 ([5]; AA 105 Asp, replicate 3): 0.891
Significance (Fi CAR AVG) ([5]; AA 105 Cys): +
Fi CAR AVG ([5]; AA 105 Cys): 0.765
Fi CAR 1 ([5]; AA 105 Cys, replicate 1): 0.616
Fi CAR 2 ([5]; AA 105 Cys, replicate 2): 0.636
Fi CAR 3 ([5]; AA 105 Cys, replicate 3): 1.043
Significance (Fi CAR AVG) ([5]; AA 105 Gln): +
Fi CAR AVG ([5]; AA 105 Gln): 1.328
Fi CAR 1 ([5]; AA 105 Gln, replicate 1): 1.419
Fi CAR 2 ([5]; AA 105 Gln, replicate 2): 1.237
Fi CAR AVG ([5]; AA 105 Glu): 0.421
Fi CAR 1 ([5]; AA 105 Glu, replicate 1): 1.372
Fi CAR 2 ([5]; AA 105 Glu, replicate 2): -0.419
Fi CAR 3 ([5]; AA 105 Glu, replicate 3): 0.311
Significance (Fi CAR AVG) ([5]; AA 105 Gly): -
Fi CAR AVG ([5]; AA 105 Gly): -0.444
Fi CAR 1 ([5]; AA 105 Gly, replicate 1): -0.596
Fi CAR 2 ([5]; AA 105 Gly, replicate 2): -0.209
Fi CAR 3 ([5]; AA 105 Gly, replicate 3): -0.526
Significance (Fi CAR AVG) ([5]; AA 105 His): +
Fi CAR AVG ([5]; AA 105 His): 2.514
Fi CAR 1 ([5]; AA 105 His, replicate 1): 2.622
Fi CAR 2 ([5]; AA 105 His, replicate 2): 2.393
Fi CAR 3 ([5]; AA 105 His, replicate 3): 2.527
Fi CAR AVG ([5]; AA 105 Ile (WT)): 0.000
Fi CAR 1 ([5]; AA 105 Ile (WT), replicate 1): 0.000
Fi CAR 2 ([5]; AA 105 Ile (WT), replicate 2): 0.000
Fi CAR 3 ([5]; AA 105 Ile (WT), replicate 3): 0.000
Significance (Fi CAR AVG) ([5]; AA 105 Leu): +
Fi CAR AVG ([5]; AA 105 Leu): 0.730
Fi CAR 1 ([5]; AA 105 Leu, replicate 1): 1.223
Fi CAR 2 ([5]; AA 105 Leu, replicate 2): 0.445
Fi CAR 3 ([5]; AA 105 Leu, replicate 3): 0.522
Fi CAR AVG ([5]; AA 105 Met): 0.034
Fi CAR 1 ([5]; AA 105 Met, replicate 1): 0.791
Fi CAR 3 ([5]; AA 105 Met, replicate 3): -0.722
Significance (Fi CAR AVG) ([5]; AA 105 Phe): +
Fi CAR AVG ([5]; AA 105 Phe): 3.398
Fi CAR 1 ([5]; AA 105 Phe, replicate 1): 3.349
Fi CAR 2 ([5]; AA 105 Phe, replicate 2): 3.354
Fi CAR 3 ([5]; AA 105 Phe, replicate 3): 3.492
Significance (Fi CAR AVG) ([5]; AA 105 Ser): +
Fi CAR AVG ([5]; AA 105 Ser): 0.539
Fi CAR 1 ([5]; AA 105 Ser, replicate 1): 0.311
Fi CAR 2 ([5]; AA 105 Ser, replicate 2): 0.896
Fi CAR 3 ([5]; AA 105 Ser, replicate 3): 0.410
Fi CAR AVG ([5]; AA 105 Thr): -0.255
Fi CAR 2 ([5]; AA 105 Thr, replicate 2): -0.487
Fi CAR 3 ([5]; AA 105 Thr, replicate 3): -0.023
Significance (Fi CAR AVG) ([5]; AA 105 Trp): +
Fi CAR AVG ([5]; AA 105 Trp): 3.306
Fi CAR 1 ([5]; AA 105 Trp, replicate 1): 3.226
Fi CAR 2 ([5]; AA 105 Trp, replicate 2): 3.199
Fi CAR 3 ([5]; AA 105 Trp, replicate 3): 3.493
Significance (Fi CAR AVG) ([5]; AA 105 Tyr): +
Fi CAR AVG ([5]; AA 105 Tyr): 3.672
Fi CAR 1 ([5]; AA 105 Tyr, replicate 1): 3.556
Fi CAR 2 ([5]; AA 105 Tyr, replicate 2): 3.582
Fi CAR 3 ([5]; AA 105 Tyr, replicate 3): 3.878
Fi CAR AVG ([5]; AA 105 Val): -0.016
Fi CAR 1 ([5]; AA 105 Val, replicate 1): 0.268
Fi CAR 2 ([5]; AA 105 Val, replicate 2): 0.226
Fi CAR 3 ([5]; AA 105 Val, replicate 3): -0.543
WT abs Fi 1 ([5]; WT (Ile 105) absolute fitness, replicate 1): -1.491
WT abs Fi 2 ([5]; WT (Ile 105) absolute fitness, replicate 2): -1.775
WT abs Fi 3 ([5]; WT (Ile 105) absolute fitness, replicate 3): -2.001
Fi AVG (average fitness of replicates) ([6]; KPC-2 AA 105 = Ala): -1.895
Fi AVG (average fitness of replicates) ([6]; KPC-2 AA 105 = Arg): -0.930
Significance of average fitness ([6]; KPC-2 AA 105 = Arg): -
Fi AVG (average fitness of replicates) ([6]; KPC-2 AA 105 = Asn): -1.475
Fi AVG (average fitness of replicates) ([6]; KPC-2 AA 105 = Asp): -1.100
Significance of average fitness ([6]; KPC-2 AA 105 = Asp): -
Fi AVG (average fitness of replicates) ([6]; KPC-2 AA 105 = Cys): -1.311
Significance of average fitness ([6]; KPC-2 AA 105 = Cys): -
Fi AVG (average fitness of replicates) ([6]; KPC-2 AA 105 = Gln): -2.037
Significance of average fitness ([6]; KPC-2 AA 105 = Gln): -
Fi AVG (average fitness of replicates) ([6]; KPC-2 AA 105 = Glu): -1.844
Fi AVG (average fitness of replicates) ([6]; KPC-2 AA 105 = Gly): -1.656
Significance of average fitness ([6]; KPC-2 AA 105 = Gly): -
Fi AVG (average fitness of replicates) ([6]; KPC-2 AA 105 = His): 0.833
Significance of average fitness ([6]; KPC-2 AA 105 = His): +
Fi AVG (average fitness of replicates) ([6]; KPC-2 AA 105 = Ile): -0.975
Fi AVG (average fitness of replicates) ([6]; KPC-2 AA 105 = Leu): -1.769
Significance of average fitness ([6]; KPC-2 AA 105 = Leu): -
Fi AVG (average fitness of replicates) ([6]; KPC-2 AA 105 = Met): -2.969
Fi AVG (average fitness of replicates) ([6]; KPC-2 AA 105 = Phe): -1.337
Significance of average fitness ([6]; KPC-2 AA 105 = Phe): -
Fi AVG (average fitness of replicates) ([6]; KPC-2 AA 105 = Ser): -2.334
Significance of average fitness ([6]; KPC-2 AA 105 = Ser): -
Fi AVG (average fitness of replicates) ([6]; KPC-2 AA 105 = Thr): -0.740
Significance of average fitness ([6]; KPC-2 AA 105 = Thr): -
Fi AVG (average fitness of replicates) ([6]; KPC-2 AA 105 = Trp (WT, reference)): 0.000
Fi AVG (average fitness of replicates) ([6]; KPC-2 AA 105 = Tyr): -1.021
Significance of average fitness ([6]; KPC-2 AA 105 = Tyr): -
Fi AVG (average fitness of replicates) ([6]; KPC-2 AA 105 = Val): -2.800
Significance of average fitness ([6]; KPC-2 AA 105 = Val): -
WT abs Fi 1 (absolute fitness) ([6]; KPC-2 WT (Trp 105), replicate 1): 0.136
WT abs Fi 2 (absolute fitness) ([6]; KPC-2 WT (Trp 105), replicate 2): -0.163
WT abs Fi 3 (absolute fitness) ([6]; KPC-2 WT (Trp 105), replicate 3): 0.473
